Test results: ChEMBL document CHEMBL4808184, “Discovery and Optimization of DNA Gyrase and Topoisomerase IV Inhibitors with Potent Activity against Fluoroquinolone-Resistant Gram-Positive Bacteria” (J Med Chem, 2021)
≈ marks a conversion by molar mass, not a printed value.

Assays:
physchem [1] = assay: physchem
in vitro [2] = conditions: CD1, mouse, plasma
HepG2 = assay: cells; conditions: Homo sapiens, HepG2, 72 h
Staphylococcus aureus [3] = assay: microbe, parasite or virus in culture; conditions: ATCC 49951
K562 = assay: cells; conditions: Homo sapiens, K562, 72 h
in vitro [4] = conditions: Sprague-Dawley, rat, plasma
Staphylococcus aureus [5] = assay: microbe, parasite or virus in culture; conditions: ATCC 49951; remark: listed apart in the source
Staphylococcus aureus [6] = assay: microbe, parasite or virus in culture; conditions: ATCC 49951; remark: listed apart in the source
Streptococcus pneumoniae = assay: microbe, parasite or virus in culture; conditions: ATCC 49619
in vitro [7] = conditions: human, plasma
Enterococcus faecalis = assay: microbe, parasite or virus in culture; conditions: ATCC 29212
in vivo [8] = conditions: rat, po, 5 mg/kg
in vivo [9] = conditions: rat, po, 5 mg/kg; remark: listed apart in the source
physchem [10] = conditions: octanol/water, pH 7.4
in vivo [11] = conditions: rat, po, 5 mg/kg; remark: listed apart in the source
in vivo [12] = conditions: rat, iv
in vivo [13] = conditions: rat, 5 mg/kg
in vivo [14] = conditions: rat, po, 3 mg/kg
in vivo [15] = conditions: rat, iv, 1 mg/kg
in vivo [16] = conditions: rat, po, 3 mg/kg; remark: listed apart in the source
in vivo [17] = conditions: rat, po, 5 mg/kg; remark: listed apart in the source
physchem [18] = assay: physchem; remark: listed apart in the source
in vitro [19] = conditions: human, Caco-2
hERG (KCNH2) = hERG (KCNH2) (Homo sapiens, UniProt Q12809); assay: in vitro; conditions: CHO-K1 cells expressing human ERG
Sequence of hERG (KCNH2) (Q12809 whole entry): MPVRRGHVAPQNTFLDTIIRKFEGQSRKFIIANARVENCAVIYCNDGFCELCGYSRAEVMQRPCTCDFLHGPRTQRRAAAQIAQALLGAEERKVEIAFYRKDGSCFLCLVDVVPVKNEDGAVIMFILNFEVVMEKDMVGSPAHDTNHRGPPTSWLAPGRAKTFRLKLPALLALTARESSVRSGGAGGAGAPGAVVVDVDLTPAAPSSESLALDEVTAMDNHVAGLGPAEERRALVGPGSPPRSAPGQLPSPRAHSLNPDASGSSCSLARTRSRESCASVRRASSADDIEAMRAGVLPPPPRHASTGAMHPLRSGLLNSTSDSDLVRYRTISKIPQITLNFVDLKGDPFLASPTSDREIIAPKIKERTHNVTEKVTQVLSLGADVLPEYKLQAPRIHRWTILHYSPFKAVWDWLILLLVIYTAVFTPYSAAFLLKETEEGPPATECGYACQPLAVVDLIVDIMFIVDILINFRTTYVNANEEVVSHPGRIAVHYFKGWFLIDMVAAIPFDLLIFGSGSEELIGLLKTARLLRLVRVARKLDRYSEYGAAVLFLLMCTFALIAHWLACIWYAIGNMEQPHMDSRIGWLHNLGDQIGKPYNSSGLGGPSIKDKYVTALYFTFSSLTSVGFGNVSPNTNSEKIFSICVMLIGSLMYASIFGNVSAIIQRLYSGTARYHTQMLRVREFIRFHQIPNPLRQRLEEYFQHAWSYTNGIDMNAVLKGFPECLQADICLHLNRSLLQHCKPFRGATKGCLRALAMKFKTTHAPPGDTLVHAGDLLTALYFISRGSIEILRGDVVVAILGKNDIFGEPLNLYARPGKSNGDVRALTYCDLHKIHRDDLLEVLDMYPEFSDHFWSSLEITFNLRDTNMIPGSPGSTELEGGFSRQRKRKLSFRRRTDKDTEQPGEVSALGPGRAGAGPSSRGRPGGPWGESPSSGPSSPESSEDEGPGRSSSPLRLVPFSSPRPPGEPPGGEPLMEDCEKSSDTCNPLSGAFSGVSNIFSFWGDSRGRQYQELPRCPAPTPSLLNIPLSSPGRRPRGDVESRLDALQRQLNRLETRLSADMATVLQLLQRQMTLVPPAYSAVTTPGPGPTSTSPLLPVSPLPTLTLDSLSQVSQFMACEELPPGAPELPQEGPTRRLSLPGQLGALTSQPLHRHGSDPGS

in vitro [20] = conditions: human, Caco-2; remark: listed apart in the source
in vivo [21] = conditions: rat, 5 mg/kg; remark: listed apart in the source
physchem [22] = conditions: buffer, pH 7
in vivo [23] = conditions: dog, po, 1 mg/kg
in vivo [24] = conditions: mouse, po, 5 mg/kg
in vivo [25] = conditions: mouse, po, 5 mg/kg; remark: listed apart in the source
in vivo [26] = conditions: dog, 1 mg/kg
in vivo [27] = conditions: mouse, 5 mg/kg
in vivo [28] = conditions: mouse, iv
in vivo [29] = conditions: mouse, po, 5 mg/kg; remark: listed apart in the source
in vivo [30] = conditions: dog, iv, 0.125 mg/kg
in vivo [31] = conditions: dog, po, 1 mg/kg; remark: listed apart in the source
in vivo [32] = conditions: dog, po, 1 mg/kg; remark: listed apart in the source
in vivo [33] = conditions: mouse, po, 5 mg/kg; remark: listed apart in the source

Compound	pKa (physchem [1])	fraction unbound at 4 h, 10 µM (in vitro [2])	EC50 (HepG2) [µM]	MIC (Staphylococcus aureus [3]) [µg/mL]	EC50 (K562) [µM]	fraction unbound at 4 h, 10 µM (in vitro [4])	MIC (Staphylococcus aureus [5]) [µg/mL]	MIC (Staphylococcus aureus [6]) [µg/mL]	MIC (Streptococcus pneumoniae) [µg/mL]	fraction unbound at 4 h, 10 µM (in vitro [7])	MIC (Enterococcus faecalis) [µg/mL]	Cmax at 24 h (in vivo [8]) [nM]	AUC(0-inf) at 24 h (in vivo [9]) [µM·h]	logD (physchem [10])	Tmax at 24 h (in vivo [11]) [h]	half-life at 24 h (in vivo [12]) [h]	Vd at 24 h (in vivo [13]) [L/kg]	bioavailability at 24 h (in vivo [17]) [%]	further results
Cc1c(N2CC[C@@H]([C@H](C)N)C2)c(F)cc2cc(C(=O)O)c(=O)n(C3CC3)c12	5.2	0.66	> 100	2 (≈ 5.36 µM)	> 100	0.54	2 (≈ 5.36 µM)	0.125 (≈ 0.335 µM)	0.015 (≈ 0.0402 µM)	0.54	0.25 (≈ 0.669 µM)								
Cc1c(N2CCC(C3(N)CC3)C2)c(F)cc2cc(C(=O)O)c(=O)n(C3CC3)c12 (configuration not stated)	5.2	0.48	> 100	1 (≈ 2.59 µM)	> 100	0.25		0.06 (≈ 0.156 µM)		0.22		2000	7.62	-0.97	1	1.32	0.69		
Cc1c(N2CC3CC3(N)C2)c(F)cc2c(CN)cc(=O)n(C3CC3)c12 (configuration not stated)	7.6		82	0.125 (≈ 0.365 µM)	40									1.1					
C[C@H]1COc2c(N3CC4CC(F)(F)C[C@@H](N)[C@H]4C3)c(F)cc3cc(C(=O)O)c(=O)n1c23 (single isomer, unassigned)	5.1	0.41		0.06 (≈ 0.137 µM)		0.42		≤ 0.03		0.18				-0.26					Cmax at 24 h (in vivo [14]): 1700 nM; half-life at 24 h (in vivo [15]): 3.46 h; Tmax at 24 h (in vivo [16]): 2 h
Cc1c(N2CCC(C3(N)CC3)C2)c(F)cc2c(Cc3n[nH]c(=O)o3)cc(=O)n(C3CC3)c12 (configuration not stated)		0.4		0.5 (≈ 1.14 µM)		0.15		1 (≈ 2.28 µM)		0.27		51	0.12	0.24	0.5	0.99	1.3	14.9	pKa (physchem [18]): 7.2
Cc1c(N2CC[C@@H]([C@H](C)N)C2)c(F)cc2ccc(=O)n(C3CC3)c12	9.6		93	0.06 (≈ 0.182 µM)			≤ 0.03	≤ 0.06	≤ 0.03		0.125 (≈ 0.379 µM)								
C[C@H](N)[C@@H]1CCN(c2c(F)cc3cc(C(=O)O)c(=O)n4c3c2OC[C@@H]4C)C1	5	0.94	> 100	2 (≈ 5.33 µM)	> 100	0.72	1 (≈ 2.66 µM)	0.125 (≈ 0.333 µM)	≤ 0.03	0.8	0.25 (≈ 0.666 µM)	540	1.6	-1.1	0.83	3.02	1.75	66	efflux ratio (in vitro [19]): 1.7; inhibition at 300 µM (hERG (KCNH2)): 8.3%; Papp A→B at 2 h, 10 µM (in vitro [20]): 2.7 ×10⁻⁶ cm/s; clearance at 24 h (in vivo [21]): 18.5 mL/min/kg; solubility at 24 h (physchem [22]): 675 µg/mL (≈ 1800 µM)
C[C@H]1COc2c(N3CC[C@@H](C4(N)CC4)C3)c(F)cc3cc(C(=O)O)c(=O)n1c23	4.9	0.87	> 100	2 (≈ 5.16 µM)	> 100	0.63	0.5 (≈ 1.29 µM)	0.25 (≈ 0.645 µM)	0.06 (≈ 0.155 µM)	0.76	0.25 (≈ 0.645 µM)	1350	8.68	-0.9	2.7	4.64	1.09	65	AUC(0-inf) at 24 h (in vivo [23]): 19 µM·h; Cmax at 24 h (in vivo [24]): 490 nM; AUC(0-inf) at 24 h (in vivo [25]): 4.3 µM·h; Vd at 24 h (in vivo [26]): 1.91 L/kg; efflux ratio (in vitro [19]): 0.9; inhibition at 300 µM (hERG (KCNH2)): 27%; Vd at 24 h (in vivo [27]): 1.88 L/kg; half-life at 24 h (in vivo [28]): 3.36 h; Tmax at 24 h (in vivo [29]): 2 h; half-life at 24 h (in vivo [30]): 9.95 h; Papp A→B at 2 h, 10 µM (in vitro [20]): 20 ×10⁻⁶ cm/s; clearance at 24 h (in vivo [21]): 3.26 mL/min/kg; Cmax at 24 h (in vivo [31]): 1350 nM; Tmax at 24 h (in vivo [32]): 4 h; solubility at 24 h (physchem [22]): 1270 µg/mL (≈ 3270 µM); bioavailability at 24 h (in vivo [33]): 92%
